Experimental data: patent US12433865B2, “Compositions comprising PGI2-receptor agonists and processes for the preparation thereof” (Arena Pharmaceuticals, Inc., priority 2018, dated 2025)

Assay: Release (dissolution) profile of capsules, USP Apparatus 2 (paddle)
Type: physicochemical
Conditions: for Release rate (percentage of Compound 1 released over time): 0.04 mg capsule, Poloxamer 188:food grade GMS 50:50, T = 0 (pre-curing)
Source text: USP Apparatus 2 (Paddle Apparatus) is described, for example, in the United States Pharmacopeial Convention, Feb. 1, 2012, Chapter <711> (“Dissolution”), incorporated by reference herein in its entirety. See http://www.usp.org/sites/default/files/usp_pdf/EN/USPNF/revisions/m99470-gc_711.pdf. The assembly from Apparatus 1 is used, except that a paddle formed from a blade and a shaft is used as the stirring element. The shaft is positioned so that its axis is not more than 2 mm from the vertical axis of the vessel at any point and rotates smoothly without significant wobble that could affect the results. The vertical center line of the blade passes through the axis of the shaft so that the bottom of the blade is flush with the bottom of the shaft. A distance of 25±2 mm between the bottom of the blade and the inside bottom of the vessel is maintained during the test. The metallic or suitably inert, rigid blade and shaft comprise a single entity. A suitable two-part detachable design may be used provided the assembly remains firmly engaged during the test. The paddle blade and shaft may be coated with a suitable coating so as to make them inert. The dosage unit is allowed to sink to the bottom of the vessel before rotation of the blade is started. A small, loose piece of nonreactive material, such as not more than a few turns of wire helix, may be attached to dosage units that would otherwise float. Other validated sinker devices may be used.
Unless otherwise specified, the release profiles for capsules were measured using USP Apparatus 2 (paddle).
All release profiles disclosed in Tables 3c-3p were measured with USP Apparatus 2 (paddle) at 50 rpm in 500 mL of aqueous sodium phosphate at a concentration of 0.05 M (pH=6.8). The values in a given table relate to capsules obtained from the same batch. Values shown represent mean values over a number of dissolution tests (“n” in each table) in each case.

- Release rate (percentage of Compound 1 released over time) (480 min): 72.7%
- Release rate (percentage of Compound 1 released over time) (600 min): 79.8%
- Release rate (percentage of Compound 1 released over time) (720 min): 83.1%
- Release rate (percentage of Compound 1 released over time) (735 min): 84.6%
- change of release rate after storage (0.04 mg of Compound 1 in Gelucire 50/13, storage at 40° C. and 75% RH for two weeks (FIG. 5)): rapid increase
- release rate relative to immediate-release composition (0.5 mg Compound 1, Poloxamer 188:food grade GMS 70:30, 50:50 and 30:70 (FIGS. 8-10)): slower rate
- release rate after storage (0.5 mg Compound 1, Poloxamer 188:food grade GMS 70:30, 50:50 and 30:70, storage at 40° C. and 75% RH for about one month (FIGS. 8-10)): substantially the same
- mean value (n = 6) of % of Compound 1 released (Table 3c: size 4 capsule, 0.03 mg Compound 1, Poloxamer 188:food grade GMS 70:30, 20 min): 14.8%
- mean value (n = 6) of % of Compound 1 released (Table 3c: size 4 capsule, 0.03 mg Compound 1, Poloxamer 188:food grade GMS 70:30, 30 min): 36.1%
- mean value (n = 6) of % of Compound 1 released (Table 3c: size 4 capsule, 0.03 mg Compound 1, Poloxamer 188:food grade GMS 70:30, 45 min): 65.4%
- mean value (n = 6) of % of Compound 1 released (Table 3c: size 4 capsule, 0.03 mg Compound 1, Poloxamer 188:food grade GMS 70:30, 60 min): 83.8%
- mean value (n = 6) of % of Compound 1 released (Table 3c: size 4 capsule, 0.03 mg Compound 1, Poloxamer 188:food grade GMS 70:30, 90 min): 95.5%
- mean value (n = 6) of % of Compound 1 released (Table 3c: size 4 capsule, 0.03 mg Compound 1, Poloxamer 188:food grade GMS 70:30, 120 min): 98.4%
- mean value (n = 4) of % of Compound 1 released (Table 3e: size 4 capsule, 0.5 mg Compound 1, Poloxamer 188:food grade GMS 70:30, 30 min): 17.7%
- mean value (n = 4) of % of Compound 1 released (Table 3e: size 4 capsule, 0.5 mg Compound 1, Poloxamer 188:food grade GMS 70:30, 60 min): 56.9%
- mean value (n = 4) of % of Compound 1 released (Table 3e: size 4 capsule, 0.5 mg Compound 1, Poloxamer 188:food grade GMS 70:30, 120 min): 95.1%
- mean value (n = 4) of % of Compound 1 released (Table 3f: size 4 capsule, 0.5 mg Compound 1, Poloxamer 188:food grade GMS 70:30, 30 min): 19.3%
- mean value (n = 4) of % of Compound 1 released (Table 3f: size 4 capsule, 0.5 mg Compound 1, Poloxamer 188:food grade GMS 70:30, 60 min): 61.9%
- mean value (n = 4) of % of Compound 1 released (Table 3f: size 4 capsule, 0.5 mg Compound 1, Poloxamer 188:food grade GMS 70:30, 120 min): 98.1%
- mean value (n = 4) of % of Compound 1 released (Table 3g-1: Storage Time = 0, size 4 capsule, 0.5 mg Compound 1, Poloxamer 188:food grade GMS 70:30, 30 min): 33.0%
- mean value (n = 4) of % of Compound 1 released (Table 3g-1: Storage Time = 0, size 4 capsule, 0.5 mg Compound 1, Poloxamer 188:food grade GMS 70:30, 45 min): 64.2%
- mean value (n = 4) of % of Compound 1 released (Table 3g-1: Storage Time = 0, size 4 capsule, 0.5 mg Compound 1, Poloxamer 188:food grade GMS 70:30, 60 min): 86.0%
- mean value (n = 4) of % of Compound 1 released (Table 3g-2 (Storage Time = 2 weeks), first line, size 4 capsule, 0.5 mg Compound 1, Poloxamer 188:food grade GMS 70:30, 30 min): 33.0%
- mean value (n = 4) of % of Compound 1 released (Table 3g-2 (Storage Time = 2 weeks), first line, size 4 capsule, 0.5 mg Compound 1, Poloxamer 188:food grade GMS 70:30, 45 min): 64.2%
- mean value (n = 4) of % of Compound 1 released (Table 3g-2 (Storage Time = 2 weeks), first line, size 4 capsule, 0.5 mg Compound 1, Poloxamer 188:food grade GMS 70:30, 60 min): 86.0%
- mean value (n = 4) of % of Compound 1 released (Table 3g-2 (Storage Time = 2 weeks), second line, size 4 capsule, 0.5 mg Compound 1, Poloxamer 188:food grade GMS 70:30, 30 min): 34.8%
- mean value (n = 4) of % of Compound 1 released (Table 3g-2 (Storage Time = 2 weeks), second line, size 4 capsule, 0.5 mg Compound 1, Poloxamer 188:food grade GMS 70:30, 45 min): 67.9%
- mean value (n = 4) of % of Compound 1 released (Table 3g-2 (Storage Time = 2 weeks), second line, size 4 capsule, 0.5 mg Compound 1, Poloxamer 188:food grade GMS 70:30, 60 min): 89.4%
- mean value (n = 4) of % of Compound 1 released (Table 3i: size 4 capsule, 0.5 mg Compound 1, Poloxamer 188:food grade GMS 50:50, 30 min): 7.5%
- mean value (n = 4) of % of Compound 1 released (Table 3i: size 4 capsule, 0.5 mg Compound 1, Poloxamer 188:food grade GMS 50:50, 60 min): 21.1%
- mean value (n = 4) of % of Compound 1 released (Table 3i: size 4 capsule, 0.5 mg Compound 1, Poloxamer 188:food grade GMS 50:50, 120 min): 41.1%
- mean value (n = 4) of % of Compound 1 released (Table 3i: size 4 capsule, 0.5 mg Compound 1, Poloxamer 188:food grade GMS 50:50, 180 min): 58.9%
- mean value (n = 4) of % of Compound 1 released (Table 3i: size 4 capsule, 0.5 mg Compound 1, Poloxamer 188:food grade GMS 50:50, 240 min): 75.3%
- mean value (n = 4) of % of Compound 1 released (Table 3i: size 4 capsule, 0.5 mg Compound 1, Poloxamer 188:food grade GMS 50:50, 360 min): 94.3%
- mean value (n = 4) of % of Compound 1 released (Table 3i: size 4 capsule, 0.5 mg Compound 1, Poloxamer 188:food grade GMS 50:50, 480 min): 100.0%
- mean value (n = 4) of % of Compound 1 released (Table 3j: size 4 capsule, 0.5 mg Compound 1, Poloxamer 188:food grade GMS 50:50, 30 min): 7.8%
- mean value (n = 4) of % of Compound 1 released (Table 3j: size 4 capsule, 0.5 mg Compound 1, Poloxamer 188:food grade GMS 50:50, 60 min): 19.5%
- mean value (n = 4) of % of Compound 1 released (Table 3j: size 4 capsule, 0.5 mg Compound 1, Poloxamer 188:food grade GMS 50:50, 120 min): 38.6%
- mean value (n = 4) of % of Compound 1 released (Table 3j: size 4 capsule, 0.5 mg Compound 1, Poloxamer 188:food grade GMS 50:50, 180 min): 56.8%
- mean value (n = 4) of % of Compound 1 released (Table 3j: size 4 capsule, 0.5 mg Compound 1, Poloxamer 188:food grade GMS 50:50, 240 min): 72.9%
- mean value (n = 4) of % of Compound 1 released (Table 3j: size 4 capsule, 0.5 mg Compound 1, Poloxamer 188:food grade GMS 50:50, 360 min): 90.7%
- mean value (n = 4) of % of Compound 1 released (Table 3j: size 4 capsule, 0.5 mg Compound 1, Poloxamer 188:food grade GMS 50:50, 480 min): 97.4%
- mean value (n = 6) of % of Compound 1 released (Table 3k: size 4 capsule, 0.03 mg Compound 1, Poloxamer 188:food grade GMS 50:50, 30 min): 8.5%
- mean value (n = 6) of % of Compound 1 released (Table 3k: size 4 capsule, 0.03 mg Compound 1, Poloxamer 188:food grade GMS 50:50, 60 min): 18.0%
- mean value (n = 6) of % of Compound 1 released (Table 3k: size 4 capsule, 0.03 mg Compound 1, Poloxamer 188:food grade GMS 50:50, 120 min): 39.3%
- mean value (n = 6) of % of Compound 1 released (Table 3k: size 4 capsule, 0.03 mg Compound 1, Poloxamer 188:food grade GMS 50:50, 180 min): 58.6%
- mean value (n = 6) of % of Compound 1 released (Table 3k: size 4 capsule, 0.03 mg Compound 1, Poloxamer 188:food grade GMS 50:50, 240 min): 75.2%
SMILES: O=C(O)COC[C@H]1CC[C@H](COC(=O)N(c2ccccc2)c2ccc(Cl)cc2)CC1 [Compound 1, 2-(((1r,4r)-4-(((4-chlorophenyl)(phenyl)carbamoyloxy)methyl)cyclohexyl)methoxy)acetic acid]
